Laboratory results from US9487489B2, “Halogen-substituted pyrazole derivatives as pest-control agents” (BAYER CROPSCIENCE AKTIENGESELLSCHAFT, priority 2013, dated 2016).

Tests used:
[1] = system: larvae of the mustard beetle (Phaedon cochleariae); test: Phaedon cochleariae spray test (PHAECO); format: in vivo; details: Chinese cabbage leaf discs, after 7 days
Description: H. Phaedon cochleariae-spray Test (PHAECO)
Solvents: 78.0 parts by weight of acetone
(§1) • 1.5 parts by weight of dimethylformamide Emulsifier: alkylaryl polyglycol ether
(§2) To produce a suitable preparation of active compound, 1 part by weight of active compound is dissolved using the stated parts by weight of solvent and made up with water comprising an emulsifier concentration of 1000 ppm until the desired concentration is reached. To produce further test concentrations, the preparation is diluted with emulsifier-containing water.
After 7 days, the efficacy in % is determined. 100% means that all of the beetle larvae have been killed; 0% means that none of the beetle larvae have been killed.

[2] = logP determination by HPLC on a reversed-phase column (C18), EEC Directive 79/831 Annex V.A8; format: physicochemical
Description: (§3) ^a) Note regarding the determination of the logP values and mass detection: The determination of the given logP values was carried out in accordance with EEC Directive 79/831 Annex V.A8 by HPLC (High Performance Liquid Chromatography) on a reversed-phase column (C18). Agilent 1100 LC system; 50*4.6 Zorbax Eclipse Plus C18 1.8 micron; mobile phase A: acetonitrile (0.1% formic acid); mobile phase B: water (0.09% formic acid); linear gradient from 10% acetonitrile to 95% acetonitrile in 4.25 min, then 95% acetonitrile for a further 1.25 min; oven temperature 55° C.; flow rate: 2.0 ml/min. Mass detection is carried out via an Agilend MSD system.
as §3, with “^*)” for “^a)”

[3] = system: adult cat fleas (Ctenocephalides felis); test: Ctenocephalides felis in vitro contact test with adult cat fleas (T1); details: after 48 h
Description: T1. Ctenocephalides felis—in vitro Contact Tests with Adult Cat Fleas
For the coating of the test tubes, initially 9 mg of active compound are dissolved in 1 ml of acetone p.a. and then diluted with acetone p.a. to the desired concentration. By turning and rocking on an orbital shaker (2 h of rocking rotation at 30 rpm), 250 μl of the solution are distributed homogeneously on the internal walls and the floor of a 25 ml test tube. At 900 ppm active compound solution and 44.7 cm^2 internal surface, an area dose of 5 μg/cm^2 is achieved for homogeneous distribution.
After evaporation of the solvent, the tubes are populated with 5-10 adult cat fleas (Ctenocephalides felis), sealed with a perforated plastic lid and incubated in a horizontal position at room temperature and ambient humidity. After 48 h, the efficacy is determined. To this end, the test tubes are stood upright and the fleas are knocked to the floor of the tube. Fleas which remain motionless on the floor or move in an uncoordinated manner are considered to be dead or moribund.
An efficacy of 100% means that all fleas were dead or moribund. 0% efficacy means that none of the fleas had been damaged.

[4] = system: caterpillars of the armyworm (Spodoptera frugiperda); test: Spodoptera frugiperda spray test (SPODFR); format: in vivo; details: application rate 500 g/ha; maize leaf discs; after 7 days
Description: I. Spodoptera frugiperda-spray Test (SPODFR)
(§4) Solvent: 78.0 parts by weight of acetone
as §1, §2
Leaf discs of maize (Zea mays) are sprayed with an active compound preparation of the desired concentration and, after drying, populated with caterpillars of the armyworm (Spodoptera frugiperda).
After 7 days, the efficacy in % is determined. 100% means that all of the caterpillars have been killed; 0% means that none of the caterpillars have been killed.

[5] = system: greenhouse red spider mite (Tetranychus urticae); test: Tetranychus urticae spray test, OP-resistant (TETRUR); format: in vivo; details: application rate 500 g/ha; bean leaf discs; after 6 days
Description: J. Tetranychus urticae-spray Test, OP-Resistant (TETRUR)
as §4, §1, §2
Discs of bean leaves (Phaseolus vulgaris) which are infested by all stages of the greenhouse red spider mite (Tetranychus urticae) are sprayed with an active compound preparation of the desired concentration.
After 6 days, the efficacy in % is determined. 100% means that all of the spider mites have been killed; 0% means that none of the spider mites have been killed.

[6] = HPLC, reversed-phase C18, acetonitrile (0.1% formic acid)/water (0.09% formic acid) gradient
[7] = HPLC on reversed-phase column (C18), acetonitrile/water with formic acid, EEC Directive 79/831 Annex V.A8

`Cn1nc(C(F)(F)C(F)(F)F)c(C(F)(F)F)c1-n1cc(-c2cncc(C(=O)NC3CC3)n2)cn1` [Ic-178] showed an efficacy in % ([1]; application rate 100 g/ha) of 100%.
Work on `Cn1nc(C(F)(F)C(F)(F)F)c(C(F)(F)F)c1-n1cnc(-c2ccc(Cl)c(C(=O)NCc3ccccc3)c2)c1` [Ib-1, N-Benzyl-2-chloro-5-{1-[1-methyl-3-(pentafluoroethyl)-4-(trifluoromethyl)-1H-pyrazol-5-yl]-1H-imidazol-4-yl}benzamide] yielded an efficacy in % ([1]; application rate 100 g/ha) of 83% and a chromatographic logP [2] of 4.
With `Cn1nc(C(F)(F)C(F)(F)F)c(C(F)(F)F)c1-n1cnc(-c2cccc(C(=O)NC3(C#N)CC3)c2)n1` [Ie-7] the logP [2, 6] was 3.46.
For `Cn1nc(C(F)(F)C(F)(F)F)c(C(F)(F)F)c1-n1cc(-c2ccc(Cl)c(C(=O)NCc3ncc[nH]3)c2)cn1` [Ic-146], the “efficacy (dead or moribund fleas)” value ([3]; application rate 1 μg/cm^2) was 80% and the “efficacy (dead or moribund fleas)” value ([3]; application rate 5 μg/cm^2) was 80%.
Compound `Cn1nc(C(F)(F)C(F)(F)F)c(C(F)(F)F)c1-n1cnc(-c2cccc(C(=O)NCc3cccs3)c2)n1` [Ie-4] has an efficacy in % ([1]; application rate 100 g/ha) of 100% and a logP [2, 6] of 4.05.
Work on `Cn1nc(C(F)(F)C(F)(F)F)c(C(F)(F)F)c1-n1cc(-c2ccc(C(F)(F)F)c(C(=O)NC3CC3)c2)cn1` [Ic-196] yielded a logP [2, 7] of 3.96.
`Cn1nc(C(F)(F)C(F)(F)F)c(C(F)(F)F)c1-n1cc(-c2ccc(C(F)(F)F)c(C(=O)NC3(C#N)CC3)c2)cn1` [Ic-203] showed a logP [2, 7] of 3.88.
`Cn1nc(C(F)(F)C(F)(F)F)c(C(F)(F)F)c1-n1cnc(-c2cccc(C(=O)NC3(C(N)=S)CC3)c2)n1` [Ie-6] showed a logP [2, 6] of 3.29.
With `CN(C(=O)c1cc(-c2cnn(-c3c(C(F)(F)F)c(C(F)(F)C(F)(F)F)nn3C)c2)ccc1Cl)C1CC1` [Ic-199] the “efficacy (dead or moribund fleas)” value ([3]; application rate 1 μg/cm^2) was 100% and the “efficacy (dead or moribund fleas)” value ([3]; application rate 5 μg/cm^2) was 100%.
For `Cn1nc(C(F)(F)C(F)(F)F)c(C(F)(F)F)c1-n1cc(-c2ccc(Cl)c(C(=O)Nc3ccc(F)cc3)c2)cn1` [Ic-209], the logP [2, 7] was 4.53.
Compound `Cn1nc(C(F)(F)C(F)(F)F)c(C(F)(F)F)c1-n1cnc(-c2ccc(Cl)c(C(=O)NC3CC3)c2)n1` [Ie-2] has a logP [2, 6] of 3.72.
In the case of `Cn1nc(C(F)(F)C(F)(F)F)c(C(F)(F)F)c1-n1cc(-c2ccc(Cl)c(C(=O)Nc3ccon3)c2)cn1` [Ic-145], the “efficacy (dead or moribund fleas)” value ([3]; application rate 1 μg/cm^2) is reported as 100% and the “efficacy (dead or moribund fleas)” value ([3]; application rate 5 μg/cm^2) is reported as 100%.
For `Cn1nc(C(F)(F)F)c(CCl)c1-n1cc(-c2ccc(Cl)c(C(=O)NC3CC3)c2)cn1` [Ic-114], the logP [2, 7] was 3.12.
Compound `CCC(=O)N(C(=O)c1cc(-c2cnn(-c3c(C(F)(F)F)c(C(F)(F)C(F)(F)F)nn3C)c2)ccc1Cl)C1(C#N)CC1` [Ic-205] has a logP [2, 7] of 4.63.
With `CCCN(C(=O)c1cc(-c2cnn(-c3c(C(F)(F)F)c(C(F)(F)C(F)(F)F)nn3C)c2)ccc1Cl)C1(C#N)CC1` [Ic-204] the logP [2, 7] was 4.56.
Work on `Cn1nc(C(F)(F)F)c(C#N)c1-n1cc(-c2ccc(Cl)c(C(=O)NC3CC3)c2)cn1` [Ic-30] yielded an efficacy in % ([1]; application rate 100 g/ha) of 100% and a logP [2, 7] of 2.97.
Compound `Cn1nc(C(F)(F)C(F)(F)F)c(C(F)(F)F)c1-n1cc(-c2ccc(Cl)c(C(=O)NC3CC3)c2)c(N)n1` [Ic-192] has an efficacy in % ([1]; application rate 100 g/ha) of 100% and a logP [2, 7] of 3.35.
Compound `CON=Cc1c(C(F)(F)F)nn(C)c1-n1cc(-c2ccc(Cl)c(C(=O)NC3CC3)c2)cn1` (mixture of isomers) [Ic-51] has an efficacy in % ([1]; application rate 500 g/ha) of 100% and a logP [2, 7] of 3.15.
Compound `Cn1nc(C(F)(F)F)c(C(=O)NC2CC2)c1-n1cc(-c2ccc(Cl)c(C(=O)NC3CC3)c2)cn1` [Ic-100] has a logP [2, 7] of 2.31.
For `CC(NC(=O)c1cc(-c2cnn(-c3c(C(F)(F)F)c(C(F)(F)C(F)(F)F)nn3C)c2)ccc1Cl)C1CC1` (stereo not drawn) [Ic-207], the logP [2, 7] was 4.4.
`Cn1nc(C(F)(F)C(F)(F)F)c(C(F)(F)F)c1-n1cc(-c2cncc(C(=O)NC3(C#N)CC3)n2)cn1` [Ic-179] gave an efficacy in % ([1]; application rate 500 g/ha) of 100%.
`Cn1nc(C(F)(F)F)c(C=NO)c1-n1cc(-c2ccc(Cl)c(C(=O)NC3CC3)c2)cn1` (mixture of isomers) [Ic-50] gave a logP [2, 7] of 2.47.
Compound `C=CCN(C(=O)c1cc(-c2cnn(-c3c(C(F)(F)F)c(C(F)(F)C(F)(F)F)nn3C)c2)ccc1Cl)C1(C#N)CC1` [Ic-206] has a logP [2, 7] of 4.44.
Compound `Cn1nc(C(F)(F)F)c(C(=O)NC2CC2)c1-n1cc(-c2ccc(Cl)c(C(=O)NC3(C#N)CC3)c2)cn1` [Ic-101] has a logP [2, 7] of 2.32.
`Cn1nc(C(F)(F)C(F)(F)F)c(C(F)(F)F)c1-n1cc(-c2cc(C(=O)NC3CC3)c(F)c(S(N)(=O)=O)c2)cn1` [Ic-173] gave an efficacy in % ([1]; application rate 500 g/ha) of 100%.
`Cn1nc(C(F)(F)C(F)(F)F)c(C(F)(F)F)c1-n1cc(-c2cc(C(=O)NC3(C#N)CC3)c(Cl)cc2F)cn1` [Ic-93] gave an efficacy in % ([1]; application rate 500 g/ha) of 100%.
Compound `Cn1nc(C(F)(F)C(F)(F)F)c(C(F)(F)F)c1-n1cc(-c2ccc(Cl)c(C(=O)NC3(C4CCC4)CC3)c2)cn1` [Ic-210] has a logP [2, 7] of 4.77.
Work on `Cn1nc(C(F)(F)C(F)(F)F)c(C(F)(F)F)c1-n1cc(-c2cc(C(=O)NC3CC3)cc3c2OC(F)(F)O3)cn1` [Ic-171] yielded an efficacy in % [4] of 100%, an efficacy in % ([1]; application rate 500 g/ha) of 100% and an efficacy in % [5] of 90%.
With `Cn1nc(C(F)(F)F)c(C=O)c1-n1cc(-c2ccc(Cl)c(C(=O)NC3CC3)c2)cn1` [Ic-52] the efficacy in % ([1]; application rate 500 g/ha) was 100% and the logP [2, 7] was 2.67.
With `Cn1nc(C(F)(F)F)c(C=O)c1-n1cc(-c2ccc(Cl)c(C(=O)NC3(C#N)CC3)c2)cn1` [Ic-102] the logP [2, 7] was 2.61.
In the case of `CN(C)CCNC(=O)c1cc(-c2cnn(-c3c(C(F)(F)F)c(C(F)(F)C(F)(F)F)nn3C)c2)ccc1Cl` [Ic-138], the “efficacy (dead or moribund fleas)” value ([3]; application rate 5 μg/cm^2) is reported as 80%.
Work on `Cn1nc(C(F)(F)C(F)(F)F)c(C(F)(F)F)c1-n1cnc(-c2cccc(C(=O)Nc3ccc(Cl)nc3)c2)n1` [Ie-5] yielded an efficacy in % ([1]; application rate 100 g/ha) of 100% and a logP [2, 6] of 4.24.
With `Cc1c(-c2ccc(Cl)c(C(=O)NC3CC3)c2)c(C(F)(F)F)nn1-c1c(C(F)(F)F)c(C(F)(F)C(F)(F)F)nn1C` [Ic-5] the efficacy in % ([1]; application rate 100 g/ha) was 83% and the logP [2, 7] was 4.60.
Work on `Cn1nc(C(F)(F)C(F)(F)F)c(C(F)(F)F)c1-n1cc(-c2ccc(Cl)c(C(=O)NC3(C#N)CC3)c2)c(N)n1` [Ic-191] yielded an efficacy in % ([1]; application rate 100 g/ha) of 100% and a logP [2, 7] of 3.3.
For `Cn1nc(C(F)(F)C(F)(F)F)c(C(F)(F)F)c1-n1cc(-c2ccc(Cl)c(C(=O)Nc3nn[nH]n3)c2)cn1` [Ic-144], the “efficacy (dead or moribund fleas)” value ([3]; application rate 1 μg/cm^2) was 100% and the “efficacy (dead or moribund fleas)” value ([3]; application rate 5 μg/cm^2) was 100%.
`Cn1nc(C(F)(F)C(F)(F)F)c(C(F)(F)F)c1-n1cnc(-c2cccc(C(=O)NC3CC3)c2)n1` [Ie-3] gave a logP [2, 6] of 3.50.
In the case of `CSc1c(C(F)(F)C(F)(F)F)nn(C)c1-n1cc(-c2ccc(Cl)c(C(=O)NC3(C#N)CC3)c2)cn1` [Ic-194], the logP [2, 7] is reported as 3.56.
Compound `CCN(C(=O)c1cc(-c2cnn(-c3c(C(F)(F)F)c(C(F)(F)C(F)(F)F)nn3C)c2)ccc1Cl)C1(C#N)CC1` [Ic-208] has a logP [2, 7] of 4.33.
In the case of `Cn1nc(C(F)(F)F)c(C=NO)c1-n1cc(-c2ccc(Cl)c(C(=O)NC3(C#N)CC3)c2)cn1` (mixture of isomers) [Ic-98], the logP [2, 7] is reported as 2.42.
With `CCN(C(=O)c1cc(-c2cnn(-c3c(C(F)(F)F)c(C(F)(F)C(F)(F)F)nn3C)c2)ccc1Cl)C1CC1` [Ic-211] the “efficacy (dead or moribund fleas)” value ([3]; application rate 1 μg/cm^2) was 100% and the “efficacy (dead or moribund fleas)” value ([3]; application rate 5 μg/cm^2) was 100%.
For `CCN(CC)C(=O)c1cc(-c2cnn(-c3c(C(F)(F)F)c(C(F)(F)C(F)(F)F)nn3C)c2)ccc1S(=O)(=O)NC1CC1` [Ic-197], the logP [2, 7] was 4.39.
